Activity calls are given as the source filed them. No stated cut-off is given here; in the data, actives have a measured IC50 and inactives only a lower limit.

In the assay the target is Envelope glycoprotein gp160 (Human immunodeficiency virus 1, UniProt Q6QLK5). Nature of the assay: cell-free HIV fusion peptide-binding blockers – biochemical, uHTS, fluorescence dequenching, […] (AID 1986).
Sequence of Envelope glycoprotein gp160 (Q6QLK5 whole entry, the tested form may be a part): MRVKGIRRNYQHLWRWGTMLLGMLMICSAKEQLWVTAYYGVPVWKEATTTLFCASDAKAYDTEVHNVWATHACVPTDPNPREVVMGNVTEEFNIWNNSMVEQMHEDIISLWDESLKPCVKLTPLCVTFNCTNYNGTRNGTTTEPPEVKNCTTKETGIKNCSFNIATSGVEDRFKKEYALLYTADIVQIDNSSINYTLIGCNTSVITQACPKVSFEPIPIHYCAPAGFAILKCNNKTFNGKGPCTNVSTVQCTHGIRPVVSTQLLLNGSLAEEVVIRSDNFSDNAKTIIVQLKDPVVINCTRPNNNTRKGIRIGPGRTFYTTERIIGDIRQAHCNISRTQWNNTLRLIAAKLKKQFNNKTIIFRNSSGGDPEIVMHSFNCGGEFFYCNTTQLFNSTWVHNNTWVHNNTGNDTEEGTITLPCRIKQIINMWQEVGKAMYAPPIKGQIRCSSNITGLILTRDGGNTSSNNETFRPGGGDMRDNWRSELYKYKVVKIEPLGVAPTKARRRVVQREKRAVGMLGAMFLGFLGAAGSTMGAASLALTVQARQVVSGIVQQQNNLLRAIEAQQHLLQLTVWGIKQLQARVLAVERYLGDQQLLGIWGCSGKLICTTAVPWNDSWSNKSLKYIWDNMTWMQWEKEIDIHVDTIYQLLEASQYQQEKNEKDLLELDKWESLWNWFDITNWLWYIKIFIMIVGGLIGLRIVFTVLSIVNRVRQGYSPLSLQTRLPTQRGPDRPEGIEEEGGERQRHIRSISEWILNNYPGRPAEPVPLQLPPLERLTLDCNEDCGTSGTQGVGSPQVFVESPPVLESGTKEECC
As a reminder, the IC50 is the concentration at which inhibition is half-maximal. In the case of `O=C(O)CN1C(=O)/C(=C\c2cccc(OCc3ccc(Cl)cc3)c2)SC1=S`, the IC50 was 13.6 µM (active).
In the case of `CCCCCCc1c(C)c2ccc(OCC(=O)N[C@@H](Cc3ccccc3)C(=O)O)cc2oc1=O`, the IC50 is 22.8 µM (active).
Regarding `O=C1NC(=S)N(c2ccc(F)cc2)C(=O)/C1=C/c1ccco1`, the IC50 was 15.6 µM (active).
Take `Cc1cc(C)cc(-n2cccc2/C=C2/C(=N)N3C(=NC2=O)SN=C3S(C)(=O)=O)c1`: the IC50 is 11.6 µM (active).
`O=[N+]([O-])c1cccc(S(=O)(=O)Nc2nc3ccccc3nc2Nc2cccc(S(=O)(=O)N3CCCCC3)c2)c1`: the IC50 was 14.5 µM (active).
Consider `Cc1ccc(C)c(S(=O)(=O)/N=C2\C=C(NS(=O)(=O)c3ccccc3)C(=O)c3ccccc32)c1`, for which the concentration for half-maximal inhibition (IC50) was 12.9 µM (active).

For the origin of these results see ChEMBL document CHEMBL1201862, “PubChem BioAssay data set” (2004).
